Assay results published in US12729181B2, “Compounds, compositions, and methods for modulating calcium ion homeostasis” (The Regents of the University of California, priority 2020, dated 2026).

System: tre^tc318 mutant embryos
Test: Compound rescue screen: restoration of persistent heartbeat in tremblor embryos
Assay type: in vivo, Zebrafish
Settings: for responders at 10 µM / responders at 15 µM / responders at 20 µM: Danio rerio, 48 h; for responders at 10 µM: read-out: Rescue at 10 uM (%); for responders at 15 µM: read-out: Rescue at 15 uM (%); for responders at 20 µM: read-out: Rescue at 20 uM (%); for Rescue at 10 uM (%): 10 uM from 30 hpf; for Rescue at 10 uM (%) / Rescue at 15 uM (%) / Rescue at 20 uM (%): cardiac function by visual inspection at 2 dpf, 10 embryos per well; for Rescue at 15 uM (%): 15 uM from 30 hpf; for Rescue at 20 uM (%): 20 uM from 30 hpf
Procedure: Zebrafish of the mutant line tremblor (tre^tc318) were maintained and bred as described previously in the literature. C. f. Langenbacher A D, et al., PNAS, 2005, 102(49), 17699-17704.
Exemplary compounds were screened for their ability to partially or completely restore persistent heartbeat in tre^tc318 embryos. 10 tre^tc318 mutant embryos were placed in each well of a 24-well plate and raised in the presence of individual compounds at various concentrations (5, 10, 15 and 20 μM) from 30 hpf. Cardiac function was analyzed by visual inspection at 2 dpf. The hearts of tre^tc318 embryos manifest a chaotic movement resembling cardiac fibrillation with sporadic contractions. Compounds that elicited persistent coordinated cardiac contractions were validated by rescreening at least once on another 10 tre^tc318 mutant embryos.

Compound | responders at 10 µM [%] | responders at 15 µM [%] | also measured
CCOC(=O)C1=CCN(S(=O)(=O)c2ccccc2C)C1c1ccc(Cl)cc1 (stereo not shown) [FS017] | 25 | 60 | responders at 20 µM: 20%
CCOC(=O)C1=CCN(S(=O)(=O)c2ccccc2Br)C1c1ccccc1 (stereo not shown) [FS055] | 0 |  | 
CCOC(=O)C1=CCN(S(=O)(=O)c2ccccc2Cl)C1c1ccc(C)cc1 (stereo not shown) [FS044] | 0 |  | 
CCOC(=O)C1=CCN(S(=O)(=O)c2cccc(F)c2)C1c1ccc(F)cc1 (stereo not shown) [FS135] |  | 50 | 
CCOC(=O)C1=CCN(S(=O)(=O)c2ccccc2F)C1c1ccccc1 (stereo not shown) [FS056] |  |  | Rescue at 10 uM (%): 20%; Rescue at 15 uM (%): 0%; Rescue at 20 uM (%): 0%
CCOC(=O)C1=CCN(S(=O)(=O)c2ccccc2)C1c1ccc(C)cc1 (stereo not shown) [FS077] |  |  | Rescue at 10 uM (%): 30%
CCOC(=O)C1=CCN(S(=O)(=O)c2cccc(Br)c2)C1c1ccc(Br)cc1 (stereo not shown) [FS137] |  | 0 | 
CCOC(=O)C1=CCN(S(=O)(=O)c2ccccc2Br)C1c1cccc(C)c1 (stereo not shown) [FS033] | 0 |  | 
CCOC(=O)C1=CCN(S(=O)(=O)c2ccc(Br)cc2)C1c1ccc(Cl)cc1 (stereo not shown) [FS099] | 0 | 33 | 
CCOC(=O)C1=CCN(S(C)(=O)=O)C1c1ccc(C)cc1 (stereo not shown) [FS140] |  | 0 | 
CCOC(=O)C1=CCN(S(=O)(=O)c2ccc(Br)cc2)C1c1cccc(F)c1 (stereo not shown) [FS095] | 40 |  | 
CCOC(=O)C1=CCN(S(=O)(=O)c2ccccc2Br)C1c1cccc(Br)c1 (stereo not shown) [FS031] | 0 |  | 
CCOC(=O)C1=CCN(S(=O)(=O)c2ccccc2C)C1c1cccc(C)c1 (stereo not shown) [FS025] | 0 |  | 
CCOC(=O)C1=CCN(S(=O)(=O)c2ccc([N+](=O)[O-])cc2)C1c1ccc(C)cc1 (stereo not shown) [FS141] |  | 0 | 
CCOC(=O)C1=CCN(S(=O)(=O)c2ccccc2C)C1c1ccc(Br)cc1 (stereo not shown) [FS039] | 33 |  | 
CCOC(=O)C1=CCN(S(=O)(=O)c2ccc(Cl)cc2)C1c1cccc(C)c1 (stereo not shown) [FS091] | 0 |  | 
CCOC(=O)C1=CCN(S(=O)(=O)c2ccccc2C(=O)OC)C1c1ccc(C)cc1 (stereo not shown) [FS076] | 40 | 60 | responders at 20 µM: 10%
CCOC(=O)C1=CCN(S(=O)(=O)c2ccc(Cl)cc2)C1c1cccc(F)c1 (stereo not shown) [FS090] | 40 |  | 
CCOC(=O)C1=CCN(S(=O)(=O)c2ccccc2Cl)C1c1cccc(C)c1 (stereo not shown) [FS028] | 0 |  | 
CCOC(=O)C1=CCN(S(=O)(=O)c2ccccc2Cl)C1c1cccc(Cl)c1 (stereo not shown) [FS024] | 0 |  | 
CCOC(=O)C1=CCN(S(=O)(=O)c2ccccc2Cl)C1c1ccccc1 (stereo not shown) [FS054] | 0 |  | 
CCOC(=O)C1=CCN(S(=O)(=O)c2ccccc2F)C1c1cccc(Br)c1 (stereo not shown) [FS036] | 0 |  | 
CCOC(=O)C1=CCN(S(=O)(=O)c2ccc(Br)cc2)C1c1ccccc1 (stereo not shown) [FS104] |  |  | Rescue at 10 uM (%): 60%; Rescue at 15 uM (%): 50%; Rescue at 20 uM (%): 60%
CCOC(=O)C1=CCN(S(=O)(=O)c2ccc(C)cc2)C1c1ccc(Cl)c(Cl)c1 (stereo not shown) [FS065] | 11 |  | 

Compound | responders at 10 µM [%] | responders at 15 µM [%] | also measured
CCOC(=O)C1=CCN(S(=O)(=O)c2ccc(Cl)cc2)C1c1ccc(Cl)c(Cl)c1 (stereo not shown) [FS087] | 22 | 0 | responders at 20 µM: 0%
CCOC(=O)C1=CCN(S(=O)(=O)c2ccccc2C)C1c1ccccc1 (stereo not shown) [FS053] | 0 |  | 
CCOC(=O)C1=CCN(S(=O)(=O)c2ccc(C)cc2)C1c1ccc(CC)cc1 (stereo not shown) [FS058] | 58 | 80 | responders at 20 µM: 45%
CCOC(=O)C1=CCN(S(=O)(=O)c2ccc(C)cc2)C1c1ccc(C)cc1 (stereo not shown) [FS057] |  |  | Rescue at 10 uM (%): 60%; Rescue at 15 uM (%): 70%; Rescue at 20 uM (%): 60%
CCOC(=O)C1=CCN(S(=O)(=O)c2ccc(Cl)cc2)C1c1cccc(Br)c1 (stereo not shown) [FS089] | 0 |  | 
CCOC(=O)C1=CCN(S(=O)(=O)c2ccc(F)cc2)C1c1cccc(Cl)c1 (stereo not shown) [FS114] |  | 22 | 
CCOC(=O)C1=CCN(S(=O)(=O)c2cccc(Cl)c2)C1c1ccc(Cl)c(Cl)c1 (stereo not shown) [FS118] |  | 10 | 
CCOC(=O)C1=CCN(S(=O)(=O)c2ccc(C)cc2)C1c1ccc(Br)cc1 (stereo not shown) [FS066] |  |  | Rescue at 10 uM (%): 11%
CCOC(=O)C1=CCN(S(=O)(=O)c2ccc(C)cc2)C1c1ccc(Cl)cc1 (stereo not shown) [FS063] |  |  | Rescue at 10 uM (%): 40%
CCOC(=O)C1=CCN(S(=O)(=O)c2ccc(Cl)cc2)C1c1ccc(F)cc1 (stereo not shown) [FS098] | 40 | 44 | responders at 20 µM: 89%
CCOC(=O)C1=CCN(S(=O)(=O)c2cccc(Cl)c2)C1c1cccc(C)c1 (stereo not shown) [FS122] |  | 33 | 
CCOC(=O)C1=CCN(S(=O)(=O)c2cccc(Cl)c2)C1c1ccccc1 (stereo not shown) [FS132] |  | 88 | 
CCOC(=O)C1=CCN(S(=O)(=O)c2ccccc2Br)C1c1ccc(C)cc1 (stereo not shown) [FS048] | 0 |  | 
CCOC(=O)C1=CCN(S(=O)(=O)c2ccc(Br)cc2)C1c1cccc(C)c1 (stereo not shown) [FS096] | 22 |  | 
CCOC(=O)C1=CCN(S(=O)(=O)c2ccc(Br)cc2)C1c1cccc(Br)c1 (stereo not shown) [FS094] | 11 | 75 | responders at 20 µM: 25%
CCOC(=O)C1=CCN(S(=O)(=O)c2ccccc2)C1c1ccccc1 (stereo not shown) [FS148] |  | 56 | 
CCOC(=O)C1=CCN(S(=O)(=O)c2ccccc2C)C1c1ccc(C)cc1 (stereo not shown) [FS018] | 0 |  | 
CCOC(=O)C1=CCN(S(=O)(=O)c2ccccc2Br)C1c1cccc(Cl)c1 (stereo not shown) [FS030] | 0 |  | 
CCOC(=O)C1=CCN(S(=O)(=O)c2ccccc2C)C1c1cccc(Cl)c1 (stereo not shown) [FS020] | 0 |  | 
CCOC(=O)C1=CCN(S(=O)(=O)c2ccc(F)cc2)C1c1cccc(Br)c1 (stereo not shown) [FS115] |  | 30 | 
CCOC(=O)C1=CCN(S(=O)(=O)c2ccc(Cl)cc2)C1c1ccc(Cl)cc1 (stereo not shown) [FS085] |  |  | Rescue at 10 uM (%): 89%; Rescue at 15 uM (%): 80%; Rescue at 20 uM (%): 80%
CCOC(=O)C1=CCN(S(=O)(=O)c2ccccc2C)C1c1ccc(Cl)c(Cl)c1 (stereo not shown) [FS019] | 30 | 40 | responders at 20 µM: 30%
CCOC(=O)C1=CCN(S(=O)(=O)c2ccc(C)cc2)C1c1cccc(Cl)c1 (stereo not shown) [FS064] |  |  | Rescue at 10 uM (%): 20%
CCOC(=O)C1=CCN(S(=O)(=O)c2ccccc2[N+](=O)[O-])C1c1ccc(C)cc1 (stereo not shown) [FS075] |  |  | Rescue at 10 uM (%): 0%

Compound | responders at 10 µM [%] | responders at 15 µM [%] | also measured
CCOC(=O)C1=CCN(S(=O)(=O)c2ccc(C)cc2)C1c1ccc2c(c1)OCO2 (stereo not shown) [FS059] | 20 |  | 
CCOC(=O)C1=CCN(S(=O)(=O)c2ccccc2Cl)C1c1cccc(Br)c1 (stereo not shown) [FS026] | 0 |  | 
CCOC(=O)C1=CCN(S(=O)(=O)c2ccc(F)cc2)C1c1cccc(F)c1 (stereo not shown) [FS116] |  | 11 | 
CCOC(=O)C1=CCN(S(=O)(=O)c2cccc(Cl)c2)C1c1cccc(F)c1 (stereo not shown) [FS121] |  | 56 | 
CCOC(=O)C1=CCN(S(=O)(=O)c2ccccc2Br)C1c1ccc(F)cc1 (stereo not shown) [FS047] | 20 |  | 
CCOC(=O)C1=CCN(S(=O)(=O)c2ccc(Cl)cc2)C1c1cccc(Cl)c1 (stereo not shown) [FS088] | 0 |  | 
CCOC(=O)C1=CCN(S(=O)(=O)c2ccccc2C)C1c1cccc(F)c1 (stereo not shown) [FS022] | 0 |  | 
CCOC(=O)C1=CCN(S(=O)(=O)c2ccccc2F)C1c1cccc(C)c1 (stereo not shown) [FS038] | 25 |  | 
CCOC(=O)C1=CCN(S(=O)(=O)c2ccc(C)cc2)C1c1cccc2ccccc12 (stereo not shown) [FS068] |  |  | Rescue at 10 uM (%): 0%; Rescue at 15 uM (%): 0%; Rescue at 20 uM (%): 0%
CCOC(=O)C1=CCN(S(=O)(=O)c2cccc(Br)c2)C1c1ccc(F)cc1 (stereo not shown) [FS138] |  | 50 | 
CCOC(=O)C1=CCN(S(=O)(=O)c2ccc(C)cc2)C1c1ccc(C(=O)OCC)cc1 (stereo not shown) [FS061] | 40 | 56 | responders at 20 µM: 40%
CCOC(=O)C1=CCN(S(=O)(=O)c2ccccc2C(=O)OC)C1c1ccc(Cl)cc1 (stereo not shown) [FS073] |  |  | Rescue at 10 uM (%): 40%
CCOC(=O)C1=CCN(S(=O)(=O)c2ccc(Br)cc2)C1c1ccc(F)cc1 (stereo not shown) [FS101] | 20 |  | 
CCOC(=O)C1=CCN(S(=O)(=O)c2ccccc2F)C1c1cccc(Cl)c1 (stereo not shown) [FS035] | 0 |  | 
CCOC(=O)C1=CCN(S(=O)(=O)c2ccccc2Br)C1c1ccc(Br)cc1 (stereo not shown) [FS046] | 60 | 10 | responders at 20 µM: 10%
CCOC(=O)C1=CCN(S(=O)(=O)c2ccc(F)cc2)C1c1ccc(Br)cc1 (stereo not shown) [FS124] |  | 90 | 
CCOC(=O)C1=CCN(S(=O)(=O)c2ccc(Br)cc2)C1c1cccc(Cl)c1 (stereo not shown) [FS093] | 0 |  | 
CCOC(=O)C1=CCN(S(=O)(=O)c2cccc(F)c2)C1c1ccc(Cl)cc1 (stereo not shown) [FS133] |  | 78 | 
CCOC(=O)C1=CCN(S(=O)(=O)c2ccccc2)C1c1ccc(Cl)cc1 (stereo not shown) [FS072] |  |  | Rescue at 10 uM (%): 60%; Rescue at 15 uM (%): 70%; Rescue at 20 uM (%): 40%
CCOC(=O)C1=CCN(S(=O)(=O)c2ccccc2Cl)C1c1ccc(Cl)cc1 (stereo not shown) [FS041] | 44 | 30 | responders at 20 µM: 20%
CCOC(=O)C1=CCN(S(=O)(=O)c2ccccc2Cl)C1c1ccc(Br)cc1 (stereo not shown) [FS042] | 0 |  | 
CCOC(=O)C1=CCN(S(=O)(=O)c2ccccc2Br)C1c1ccc(Cl)c(Cl)c1 (stereo not shown) [FS029] | 70 | 10 | responders at 20 µM: 10%
CCOC(=O)C1=CCN(S(=O)(=O)c2ccc(Cl)cc2)C1c1ccc(C)cc1 (stereo not shown) [FS086] |  |  | Rescue at 10 uM (%): 11%
